# Results as given in patent US11571427B2, “Targeting the CBM signalosome complex induces regulatory T cells to inflame the tumor microenvironment” (THE GENERAL HOSPITAL CORPORATION, priority 2017, dated 2023).
# How the values were obtained:
# D4M.3A melanoma [1] = assay: D4M.3A tumor growth in RAG1-deficient hosts; type: in vivo, mice; conditions: hosts lack lymphocytes, FIG. 4D
# Excerpt: Mice. Foxp3YFP-Cre (Ref. 1), Foxp3GFP-Cre-ERT2 (Ref 2), Rosa26YFP (Ref. 4), Ifng KO (Ref.5) and C57BL/6/J mice were purchased from Jackson laboratories. […] and James J. […] Animals were housed in specific pathogen-free facilities at the Massachusetts General Hospital (MGH) and all experimental studies were approved and performed in accordance with guidelines and regulations implemented by the MGH Institutional Animal Care and Use Committee (IACUC). For survival studies the age of mice at euthanasia mandated by a moribund state of health was recorded in Kaplan Meyer plots. […] Wherever possible, animals were randomized into treatment groups. Tumor volumes were measured every second to third day after start of treatments and calculated as V=(length×width^2)/2.
# D4M.3A tumor cells = assay: MHC I and PD-L1 expression on tumor cells after mepazine treatment; type: in vivo, mice; conditions: within 3 days of mepazine; FIG. 4E
# Experimental: (FIG. 4A) Female Foxp3^GFP-CreERT2×CARMA1^+/+ and ×CARMA1^1111 mice were implanted with D4M.3A melanoma and starting on day 9 treated with tamoxifen until the end of the experiment as well as with three doses of 200 μg of the blocking α-PD-1 antibody 29F.1A12 or isotype control antibody, and tumor growth was recorded. […] (FIGS. 4C and 4D) D4M.3A tumor growth in C57BL/6 (FIG. 4C) or RAG1-deficient hosts (FIG. 4D) treated with MALT1 inhibitors mepazine or MI-2. (FIGS. 4E-4G) Mepazine effects within 3 days on MHC I and PD-L1 expression on tumor cells (FIG. 4E), expression of genes of adaptive immune resistance (Pdl1, Socs1), MHC I antigen presentation (Tap1), IFNγ-signaling (Stat1, Irf1), T cell recruitment (CXCL10), M1 macrophage activation (Nos2), and cytotoxicity (Gzmb) (FIG. 4F), as well as the frequency of CD4^+ and CD8^+ T cells (FIG. 4G). […] All graphs show means and either individual replicates or ±SEM.
# Preparation of single cell suspensions, antibody staining and flow cytometry. […]
# Preceding antibody staining, Fc receptors were blocked with TruStain fcX (Biolegend) for 20 minutes at 4° C., followed by dead cells staining using the fixable viability violet dye Zombie Red (Biolegend) for 15 minutes at room temperature. Cells were analyzed on LSRII, LSRFortessa or LSRFortessa X-20 flow cytometers (BD Biosciences), and data were analyzed with FlowJo software version 9.9.5.
# tumor-infiltrating Treg = assay: In situ effector cytokine expression and frequency of tumor-infiltrating Treg (flow cytometry); type: in vivo, mice; conditions: within 3 days of mepazine, FIG. 14K
# Experimental: (§1) Preparation of single cell suspensions, antibody staining and flow cytometry. Heparinized peripheral blood collected through sub-mandibular vein puncture was treated with ACK red blood cell lysis buffer. LNs and spleens were passed through 40 μm cell strainers, followed by red blood cell lysis (spleens only). Tumors were minced into small fragments and treated with 1.5 mg/ml collagenase IV and 50 U/ml DNAse I for 30 min. at 37° C. under agitation.
# Intracellular and nuclear proteins were stained for 60 minutes at room temperature after permeabilization and fixation (Mouse regulatory T cell staining Kit; eBioscience) using antibodies against: CD152/CTLA-4-(UC10-4B9), TNF (MP6-XT22), IL-4 (11B11), IL-17A (TC11-18H10.1), IFNγ (XMG1.2), and Ki67 (16A8) (BD Biosciences), BIM (C34C5), CARD11/CARMA1 (1D12) (Cell Signaling), Foxp3 (FJK-16s, eBioscience), GFP (rabbit polyclonal, Invitrogen). Polyclonal goat α-rabbit Ig (H+L) secondary antibody (Life Technologies) was used to reveal primary α-CARMA1 staining.
# (§2) Preceding antibody staining, Fc receptors were blocked with TruStain fcX (Biolegend) for 20 minutes at 4° C., followed by dead cells staining using the fixable viability violet dye […] (Biolegend) for 15 minutes at room temperature. Cells were analyzed on LSRII, LSRFortessa or LSRFortessa X-20 flow cytometers (BD Biosciences), and data were analyzed with FlowJo software version 9.9.5.
# Analysis of in situ and ex vivo stimulated cytokine secretion. To detect in situ cytokine secretion, mice were slowly i.v. injected with 500 μg of fully dissolved Brefeldin A in 250 μl PBS 6 h before sacrifice and intracellular cytokine staining.
# D4M.3A melanoma [2] = assay: D4M.3A tumor growth in F^Cre/+×C1^+/+ or f/f mice treated with Mepazine or vehicle; type: in vivo; conditions: Mepazine from day 9, FIG. 13C
# Experimental: FIGS. 13A-13K. (FIG. 13A), MHC II expression on tumor-associated macrophages in D4M.3A-implanted F^Cre/+×C1^++, f/+ or f/f mice. (FIG. 13B), D4M.3A tumor growth in mice treated with depleting αCD8 Ab from day 8 and treated with mepazine or not from day 9. (FIG. 13C), D4M.3A tumor growth in F^Cre/+×C1^+/+ or f/f mice treated with Mepazine or vehicle starting on day 9. (FIG. 13D), YFP^+ Treg were sorted from F^Cre×C1^+/+ mice and treated with 10 μM Mepazine of vehicle for 8 or 24 hours with or without concurrent αCD3/28 mAb TCR stimulation (8 h time-point only) and expression of Foxp3, markers of eTreg differentiation, cell viability, and frequency of eTreg were recorded. (FIG. 13E), RT-qPCR analysis of expression of Foxp3 and various Treg-associated genes in whole tumor tissue lysate following 3 days of Mepazine or vehicle treatment. (FIGS. 13F-13J), Composition of the tumor tissue immune infiltrate and frequencies of CD45^+ cells (FIG. 13G) and of various immune cell subsets (FIG. 13H) as well Ki67 expression by Tconv (FIG. 13I) and MHC II expression by macrophages (FIG. 13J) following 3 days of Mepazine or vehicle treatment. […]
# Tumor growth studies and treatments. […] Tumor volumes were measured every second to third day after start of treatments and calculated as V=(length×width^2)/2. […]
# whole tumor tissue = assay: Gene expression in whole tumor tissue (RT-qPCR); type: in vivo, mice
# Experimental: Quantitative RT-PCR. For analysis of gene expression, RNA was isolated (AllPrep, DNA/RNA Mini kit; Qiagen) from CD4+ GFP+ Treg sorted to >99% purity from tdFNs and tumors, or from homogenized tumor tissue, and reverse transcribed using iScript cDNA Synthesis Kit (Bio-RAD). Quantitative RT-PCR was performed using iQ SYBR green supermix (Bio-RAD) and primers: […]
# Results were expressed as 2-ΔCT relative to the house keeping gene GAPDH.
# Treg = assay: In vitro treatment of sorted YFP+ Treg with Mepazine; type: cell-based, mice; conditions: 10 μM Mepazine
# Experimental: (§3) FIGS. 13A-13K. (FIG. 13A), MHC II expression on tumor-associated macrophages in D4M.3A-implanted F^Cre/+×C1^++, f/+ or f/f mice. (FIG. 13B), D4M.3A tumor growth in mice treated with depleting αCD8 Ab from day 8 and treated with mepazine or not from day 9. (FIG. 13C), D4M.3A tumor growth in F^Cre/+×C1^+/+ or f/f mice treated with Mepazine or vehicle starting on day 9. (FIG. 13D), YFP^+ Treg were sorted from F^Cre×C1^+/+ mice and treated with 10 μM Mepazine of vehicle for 8 or 24 hours with or without concurrent αCD3/28 mAb TCR stimulation (8 h time-point only) and expression of Foxp3, markers of eTreg differentiation, cell viability, and frequency of eTreg were recorded. (FIG. 13E), RT-qPCR analysis of expression of Foxp3 and various Treg-associated genes in whole tumor tissue lysate following 3 days of Mepazine or vehicle treatment. (FIGS. 13F-13J), Composition of the tumor tissue immune infiltrate and frequencies of CD45^+ cells (FIG. 13G) and of various immune cell subsets (FIG. 13H) as well Ki67 expression by Tconv (FIG. 13I) and MHC II expression by macrophages (FIG. 13J) following 3 days of Mepazine or vehicle treatment. (FIG. 13K), Effector cytokine co-expression by tumor-infiltrating Treg following 12 days Mepazine and αPD-1 Ab treatment. *=p<0.05, **=p<0.01, and ***=p<0.001. *, #=any p<0.05 vs. C1^+/+ and C1^+/++ Mepazine, resp. in FIG. 13C.
# [3] = test system: tumor tissue immune infiltrate; assay: Composition of the tumor tissue immune infiltrate; type: in vivo, mice; conditions: 3 days of Mepazine or vehicle; FIGS. 13F-13J
# Experimental: as §3
# as §1, with “Tumors were minced into small fragments and treated with 1.5 mg/ml collagenase IV and 50 U/ml DNAse I for 30 min. at 37° C. under agitation.” left out
# as §2
SMILES,tumor growth in Rag1-deficient mice (D4M.3A melanoma [1]),MHC I expression on tumor cells (D4M.3A tumor cells),PD-L1-expression on tumor cells (D4M.3A tumor cells),IFNγ-expression by tumor-infiltrating Treg (tumor-infiltrating Treg; in situ),TNF-expression by tumor-infiltrating Treg (tumor-infiltrating Treg; in situ),Treg frequency in tumor (tumor-infiltrating Treg),addition to anti-tumor effect of CARMA1-deletion in Treg (D4M.3A melanoma [2]),"expression of Treg-associated genes in tumor tissue (whole tumor tissue; 3 days of Mepazine or vehicle, FIG. 13E)",IFN-γ-regulated genes in whole tumor tissue (whole tumor tissue; 3 days of mepazine),"Foxp3 expression of Treg in vitro (Treg; 8 or 24 hours, FIG. 13D)","GITR expression of Treg in vitro (Treg; 8 or 24 hours, FIG. 13D)",effector cytokine expression of Treg in vitro (Treg; not shown),frequency of CTL in tumor tissue [3],frequency of NK cells in tumor tissue [3],immune cell infiltration of tumor tissue [3]
COCCOc1nc(-c2ccc(Cl)c(Cl)c2)n(-c2ccc(NC(=O)CCl)cc2)n1 [MI-2],no effect on tumor growth,–,–,–,–,–,–,–,–,–,–,–,–,–,–
CN1CCCC(CN2c3ccccc3Sc3ccccc32)C1 (stereo not shown) [mepazine],no effect on tumor growth,up-regulation,up-regulation,rapid induction,rapid induction,did not reduce Treg frequency,did not add to the anti-tumor effect of CARMA1-deletion in Treg,not altered,induction of a wide range of IFN-γ-regulated genes,only a minor reduction,only a minor reduction,no effector cytokine expression,increased,increased,generally enhanced
